Measured values as given in ChEMBL document CHEMBL5126604, “Design, Synthesis, and Biological Evaluation of Pyrrole-2-carboxamide Derivatives as Mycobacterial Membrane Protein Large 3 Inhibitors for Treating Drug-Resistant Tuberculosis” (J Med Chem, 2022).
Converted amounts (≈) assume the structure as drawn.

What was measured:
Vero = assay: Cytotoxicity against African green monkey vero cells assessed as reduction in cell viability measured after 48 hrs by MTT assay; assay type: functional, cell-based; settings: Chlorocebus sabaeus
[1] = test system: Mycobacterium tuberculosis; assay: microbe, parasite or virus in culture; settings: H37Rv, 168 h
Description: Antimycobacterial activity against Mycobacterium tuberculosis H37Rv assessed as inhibition of bacterial growth measured after 7 days by microplate alamar blue assay

in vitro = settings: monkey, Vero cells
Description: Selectivity index, ratio of IC50 for African green monkey vero cells to MIC for Mycobacterium tuberculosis H37Rv

[2] = test system: Mycolicibacterium smegmatis; assay: Antimycobacterial activity against Mycobacterium smegmatis harboring MsmgdeltammpL3/pMVGHI-mmpL3tb mutant assessed as reduction in bacterial growth measured after 16 hrs […]; assay type: functional
[3] = test system: Mycolicibacterium smegmatis; assay: Antimycobacterial activity against Mycobacterium smegmatis harboring MsmgdeltammpL3/pMVGHI-mmpL3tb G253E mutant assessed as reduction in bacterial growth measured after 16 hrs […]; assay type: functional
[4] = test system: Mycobacterium tuberculosis; assay: Antimycobacterial activity against Mycobacterium tuberculosis mc2 6206 assessed as decrease in trehalose dimycolate measured after 16 hrs using [14C]acetate by TLC analysis; assay type: functional, organism-based; settings: DDE = dose-dependent effect
[5] = test system: Mycobacterium tuberculosis; assay: Antimycobacterial activity against Mycobacterium tuberculosis mc2 6206 assessed as decrease in mycolic acid transfer to cell wall arabinogalactan measured after 16 hrs using [14C]acetate by TLC analysis; assay type: functional, organism-based; settings: dose 0.0625-1 µg/ml, DDE = dose-dependent effect
[6] = test system: Mycobacterium tuberculosis; assay: microbe, parasite or virus in culture; settings: H37Rv mc2 6206, 16 h
Description: Antimycobacterial activity against Mycobacterium tuberculosis H37Rv mc2 6206 assessed as reduction in bacterial growth measured after 16 hrs by TLC analysis

[7] = Metabolic stability in mouse liver microsomes at 0.5 uM measured after 15 to 120 mins in presence of NADPH by LC-MS/MS analysis; assay type: ADME, Microsome; settings: time 15-120 min
[8] = Metabolic stability in mouse liver microsomes at 0.5 uM measured after 15 to 120 mins in absence of NADPH by LC-MS/MS analysis; assay type: ADME, Microsome; settings: time 15-120 min
[9] = test system: Mycobacterium tuberculosis; assay type: functional, H37Rv; settings: dose 100 mg/kg; route po; time 3-30 day
[10] = target: Voltage-gated inwardly rectifying potassium channel KCNH2 (Homo sapiens, UniProt Q12809)
Chain of Voltage-gated inwardly rectifying potassium channel KCNH2 (Q12809 whole entry): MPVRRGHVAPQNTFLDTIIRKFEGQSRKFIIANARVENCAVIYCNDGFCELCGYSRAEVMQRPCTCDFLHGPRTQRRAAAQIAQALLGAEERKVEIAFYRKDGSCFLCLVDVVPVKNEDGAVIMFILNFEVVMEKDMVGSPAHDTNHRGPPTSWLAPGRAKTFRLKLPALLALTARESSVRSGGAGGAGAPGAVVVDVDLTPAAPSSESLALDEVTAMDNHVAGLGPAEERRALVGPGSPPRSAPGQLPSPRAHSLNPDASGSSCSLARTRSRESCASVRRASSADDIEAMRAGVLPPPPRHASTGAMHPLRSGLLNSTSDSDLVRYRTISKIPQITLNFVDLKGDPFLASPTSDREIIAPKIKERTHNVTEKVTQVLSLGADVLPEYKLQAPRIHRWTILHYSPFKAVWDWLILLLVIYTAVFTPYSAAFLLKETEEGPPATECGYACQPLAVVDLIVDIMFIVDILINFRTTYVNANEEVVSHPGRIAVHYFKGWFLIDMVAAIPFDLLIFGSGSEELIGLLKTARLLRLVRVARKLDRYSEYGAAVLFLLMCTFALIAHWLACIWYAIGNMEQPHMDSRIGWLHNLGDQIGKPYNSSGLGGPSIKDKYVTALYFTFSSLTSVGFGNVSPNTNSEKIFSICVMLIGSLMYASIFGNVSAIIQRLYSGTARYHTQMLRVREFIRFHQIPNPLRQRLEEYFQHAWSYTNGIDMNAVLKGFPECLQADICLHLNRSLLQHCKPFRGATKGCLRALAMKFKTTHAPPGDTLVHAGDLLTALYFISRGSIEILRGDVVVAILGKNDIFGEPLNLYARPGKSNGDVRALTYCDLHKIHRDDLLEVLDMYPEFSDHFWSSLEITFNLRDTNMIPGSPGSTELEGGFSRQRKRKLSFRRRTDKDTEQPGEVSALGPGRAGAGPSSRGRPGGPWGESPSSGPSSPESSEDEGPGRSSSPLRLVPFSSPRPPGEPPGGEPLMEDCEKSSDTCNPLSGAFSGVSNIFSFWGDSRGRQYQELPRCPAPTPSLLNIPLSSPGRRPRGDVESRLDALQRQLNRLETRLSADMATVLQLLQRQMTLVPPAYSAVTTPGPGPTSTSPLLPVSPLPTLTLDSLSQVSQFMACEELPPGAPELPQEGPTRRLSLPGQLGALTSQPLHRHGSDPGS
Description: Inhibition of hERG potassium channel in HEK293 cells at 0.3 to 30 uM by whole-cell patch clamp assay

O=C(NC1C2CC3CC(C2)CC1C3)c1cc(-c2cccnc2Cl)c[nH]1 (stereo not given)
IC50 (Vero): > 64 µg/mL | MIC90 [1]: 0.28 µg/mL (≈ 0.787 µM)

O=C(NC1C2CC3CC(C2)CC1C3)c1cc(-c2cncnc2)c[nH]1 (stereo not given)
MIC90 [1]: 0.96 µg/mL (≈ 2.98 µM)

O=C(NC1CCCCCCC1)c1cc(-c2ccncc2Cl)c[nH]1
MIC90 [1]: 0.05 µg/mL (≈ 0.151 µM)

Cc1ccc(-c2c[nH]c(C(=O)NC3C4CC5CC(C4)CC3C5)c2)c(C)c1 (stereo not given)
MIC90 [1]: 0.97 µg/mL (≈ 2.78 µM)

O=C(NC1CCCCCCC1)c1cc(-c2ccc(Cl)cc2)c[nH]1
MIC90 [1]: 0.24 µg/mL (≈ 0.725 µM)

COc1cnccc1-c1c[nH]c(C(=O)NC2C3CC4CC(C3)CC2C4)c1 (stereo not given)
IC50 (Vero): 58.8 µg/mL (≈ 167 µM) | selectivity ratio (in vitro): 245 | MIC90 [1]: 0.24 µg/mL (≈ 0.683 µM)

COc1cc(F)ccc1-c1c[nH]c(C(=O)NC2C3CC4CC(C3)CC2C4)c1 (stereo not given)
IC50 (Vero): 22 µg/mL (≈ 59.7 µM) | selectivity ratio (in vitro): 1380 | MIC90 [1]: < 0.016 µg/mL

O=C(NC1C2CC3CC(C2)CC1C3)c1cc(-c2ccc(Cl)cc2Cl)c[nH]1 (stereo not given)
MIC90 [2]: 1 µg/mL (≈ 2.57 µM) | MIC=>90 [3]: >4 µg/mL | inhibition [4]: Dde | inhibition [5]: Dde | MIC90 [6]: 0.25 µg/mL (≈ 0.642 µM) | MIC90 [1]: 0.06 µg/mL (≈ 0.154 µM)

O=C(NC12CC3CC(CC(C3)C1)C2)c1cc(-c2ccc(F)nc2F)c[nH]1
Stability [7]: 47.6% | Stability [8]: Stable | Activity [9]: 1 log10CFU | IC50 [10]: > 30 µM | MIC90 [1]: < 0.016 µg/mL

O=C(NC1C2CC3CC(C2)CC1C3)c1cc(-c2cccnc2F)c[nH]1 (stereo not given)
IC50 (Vero): > 64 µg/mL | Stability [7]: 0% | Stability [8]: Stable | MIC90 [1]: 0.06 µg/mL (≈ 0.177 µM)

O=C(NC1C2CC3CC(C2)CC1C3)c1cc(-c2ccccc2Cl)c[nH]1 (stereo not given)
IC50 (Vero): > 64 µg/mL | MIC90 [1]: 0.24 µg/mL (≈ 0.676 µM)

O=C(NC1C2CC3CC(C2)CC1C3)c1cc(-c2ccc(F)cc2F)c[nH]1 (stereo not given)
Stability [7]: 61.4% | Stability [8]: Stable | selectivity ratio (in vitro): 900 | MIC90 [1]: < 0.016 µg/mL

O=C(NC1CCCCCCC1)c1cc(-c2ccc(F)cc2)c[nH]1
MIC90 [1]: 0.03 µg/mL (≈ 0.0954 µM)

O=C(NC1CCCCCCC1)c1cc(-c2ccc(F)cc2F)c[nH]1
MIC90 [2]: 0.25 µg/mL (≈ 0.752 µM) | MIC=>90 [3]: 2 µg/mL (≈ 6.02 µM) | inhibition [4]: Dde | inhibition [5]: Dde | MIC90 [6]: 0.125 µg/mL (≈ 0.376 µM) | MIC90 [1]: < 0.016 µg/mL

O=C(NC1C2CC3CC(C2)CC1C3)c1cc(-c2ccc(Cl)cc2)c[nH]1 (stereo not given)
IC50 (Vero): 12.6 µg/mL (≈ 35.5 µM) | selectivity ratio (in vitro): 126 | MIC90 [1]: 0.1 µg/mL (≈ 0.282 µM)

O=C(NC1C2CC3CC(C2)CC1C3)c1cc(-c2ccncc2Cl)c[nH]1 (stereo not given)
IC50 (Vero): 58.7 µg/mL (≈ 165 µM) | Stability [7]: 73.4% | Stability [8]: Stable | selectivity ratio (in vitro): 3670 | MIC90 [1]: < 0.016 µg/mL

COc1ccc(-c2c[nH]c(C(=O)NC3C4CC5CC(C4)CC3C5)c2)cn1 (stereo not given)
selectivity ratio (in vitro): 137 | MIC90 [1]: 0.25 µg/mL (≈ 0.711 µM)

O=C(NC12CC3CC(CC(C3)C1)C2)c1cc(-c2ccncc2Cl)c[nH]1
Stability [7]: 42.7% | Stability [8]: Stable | MIC90 [1]: 0.03 µg/mL (≈ 0.0843 µM)

O=C(NC12CC3CC(CC(C3)C1)C2)c1cc(-c2ccc(F)cc2)c[nH]1
MIC90 [1]: < 0.016 µg/mL

O=C(c1cc(-c2ccc(Cl)cc2Cl)c[nH]1)N1CCCCC1
MIC90 [1]: 7.7 µg/mL (≈ 23.8 µM)

Cc1ccc(-c2c[nH]c(C(=O)NC3C4CC5CC(C4)CC3C5)c2)cn1 (stereo not given)
MIC90 [1]: 1 µg/mL (≈ 2.98 µM)

NNC(=O)c1ccncc1 [ISONIAZID]
MIC90 [1]: 0.04 µg/mL (≈ 0.292 µM)

Cn1cc(-c2ccc(Cl)cc2Cl)cc1C(=O)NC1C2CC3CC(C2)CC1C3 (stereo not given)
MIC90 [1]: 3.7 µg/mL (≈ 9.17 µM)

O=C(NC1CCCCC1)c1cc(-c2ccc(Cl)cc2Cl)c[nH]1
MIC90 [1]: 6.5 µg/mL (≈ 19.3 µM)

O=C(NC1C2CC3CC(C2)CC1C3)c1cc(-c2ccc(C(F)(F)F)cc2C(F)(F)F)c[nH]1 (stereo not given)
MIC90 [1]: 1.08 µg/mL (≈ 2.37 µM)

O=C(NC1C2CC3CC(C2)CC1C3)c1cc(-c2ccc(F)nc2)c[nH]1 (stereo not given)
selectivity ratio (in vitro): 391 | MIC90 [1]: 0.09 µg/mL (≈ 0.265 µM)

O=C(NC1C2CC3CC(C2)CC1C3)c1cc(-c2ccncc2)c[nH]1 (stereo not given)
selectivity ratio (in vitro): 99 | MIC90 [1]: 0.45 µg/mL (≈ 1.4 µM)

COc1ccc(-c2c[nH]c(C(=O)NC3C4CC5CC(C4)CC3C5)c2)c(F)c1 (stereo not given)
IC50 (Vero): > 64 µg/mL | MIC90 [1]: 0.47 µg/mL (≈ 1.28 µM)

O=C(NC1C2CC3CC(C2)CC1C3)c1cc(-c2ccccc2F)c[nH]1 (stereo not given)
IC50 (Vero): 12.6 µg/mL (≈ 37.2 µM) | Stability [7]: 0% | Stability [8]: Stable | selectivity ratio (in vitro): 1320 | MIC90 [1]: < 0.016 µg/mL

O=C(NC1CCCCCCC1)c1cc(-c2ccc(F)nc2F)c[nH]1
Stability [7]: 25.9% | Stability [8]: Stable | MIC90 [2]: 0.5 µg/mL (≈ 1.5 µM) | MIC=>90 [3]: 4 µg/mL (≈ 12 µM) | inhibition [4]: Dde | inhibition [5]: Dde | MIC90 [6]: 0.25 µg/mL (≈ 0.75 µM) | MIC90 [1]: 0.03 µg/mL (≈ 0.09 µM)

CC1(C)CCC(NC(=O)c2cc(-c3ccc(Cl)cc3Cl)c[nH]2)CC1
MIC90 [1]: 0.5 µg/mL (≈ 1.37 µM)
